Results on 3 compounds are retold here after patent US5336673A, “3-substituted cephem compounds” (priority 1990, dated 1994).

Format in all cases: cell-based
In assay [1] the test system is Streptococcus pyogenes A 308. In words: Antibacterial activity, MIC by Agar dilution method, standard test strain 1. The conditions noted are these: A308, 10^7 CFU/ml, 37° C., 18 hours. The method, then:
(§1) The antibacterial activity was determined by an Agar dilution method as described below.
(§2) That is, the two-fold serial dilutions of the antibacterial compounds (1000 μg compound/ml) were prepared and dispersed in Muller Hinton Agar in a petri dish to a concentration of 100~0.002 μg/ml. The culture broths of standard test strains were inoculated on the medium to a concentration 10^7 CFU/ml, and incubated at 37° C. for 18 hours. The concentration of compounds(I) at which the strains were not grown was regarded as minimum inhibition concentration (MIC).
(§3) The results of antibacterial activity test of the representative examples of the compound (I) against 20 standard test strains shown in terms of MIC were indicated in Table 1.
1. Streptococcus pyogenes A 308

The test system of assay [2] is Streptococcus pyogenes A 77. In words: Antibacterial activity, MIC by Agar dilution method, standard test strain 2. The conditions noted are these: A77, 10^7 CFU/ml, 37° C., 18 hours. The method, then: as §1, §2, §3
2. Streptococcus pyogenes A 77
A general note: In agar dilution, organisms are placed on agar that contains the substance at set levels.

For assay [3], the system named is Streptococcus faecium MD 86. Nature of the assay: Antibacterial activity, MIC by Agar dilution method, standard test strain 3. The conditions noted are these: Enterococcus faecium, MD86, 10^7 CFU/ml, 37° C., 18 hours. The method, then:
as §1, §2, §3
3. Streptococcus faecium MD 86

The test system of assay [4] is Staphylococcus aureus SG 511. Nature of the assay: Antibacterial activity, MIC by Agar dilution method, standard test strain 4. As to conditions: SG511, 10^7 CFU/ml, 37° C., 18 hours. The method, then: as §1, §2, §3
4. Staphylococcus aureus SG 511

The subject of assay [5] is Staphyloccus aureus 285. In words: Antibacterial activity, MIC by Agar dilution method, standard test strain 5. As to conditions: 10^7 CFU/ml, 37° C., 18 hours. The method, then: as §1, §2, §3
5. Staphyloccus aureus 285

Assay [6] relates to Staphylococcus aureus 503. In words: Antibacterial activity, MIC by Agar dilution method, standard test strain 6. The conditions noted are these: 10^7 CFU/ml, 37° C., 18 hours. The method, then:
as §1, §2, §3
6. Staphylococcus aureus 503

Assay [7] concerns Escherichia coli O 55. In words: Antibacterial activity, MIC by Agar dilution method, standard test strain 7. The method, then: as §1, §2, §3
Assay [8] relates to Escherichia coli DC O. In words: Antibacterial activity, MIC by Agar dilution method, standard test strain 8. As to conditions: Escherichia coli DC O; 10^7 CFU/ml, 37° C., 18 hours; read-out: MIC. The method, then:
as §1, §2, §3

In assay [9] the test system is Escherichia coli DC 2. In words: Antibacterial activity, MIC by Agar dilution method, standard test strain 9. The conditions noted are these: DC2; Escherichia coli DC 2; 10^7 CFU/ml, 37° C., 18 hours; read-out: MIC. The method, then:
as §1, §2, §3

Assay [10] deals with Escherichia coli TEM. In words: Antibacterial activity, MIC by Agar dilution method, standard test strain 10. As to conditions: Escherichia coli TEM; 10^7 CFU/ml, 37° C., 18 hours; read-out: MIC. The method, then:
as §1, §2, §3

The test system of assay [11] is Escherichia coli 1507E. In words: Antibacterial activity, MIC by Agar dilution method, standard test strain 11. The conditions noted are these: Escherichia coli 1507E; 10^7 CFU/ml, 37° C., 18 hours; read-out: MIC. The method, then: as §1, §2, §3
Assay [12] relates to Pseudomonas aeruginosa 9027. In words: Antibacterial activity, MIC by Agar dilution method, standard test strain 12. The conditions noted are these: 10^7 CFU/ml, 37° C., 18 hours. The method, then:
as §1, §2, §3
12. Pseudomonas aeruginosa 9027

Assay [13] relates to Pseudomonas aeruginosa 1592E. Nature of the assay: Antibacterial activity, MIC by Agar dilution method, standard test strain 13. The conditions noted are these: 10^7 CFU/ml, 37° C., 18 hours. The method, then:
as §1, §2, §3
13. Pseudomonas aeruginosa 1592E

Assay [14] relates to Pseudomonas aeruginosa 1771. Nature of the assay: Antibacterial activity, MIC by Agar dilution method, standard test strain 14. As to conditions: 10^7 CFU/ml, 37° C., 18 hours. The method, then: as §1, §2, §3
14. Pseudomonas aeruginosa 1771

Assay [15] relates to Pseudomonas aeruginosa 1771M. Nature of the assay: Antibacterial activity, MIC by Agar dilution method, standard test strain 15. As to conditions: 18 h. The method, then: as §1, §2, §3
15. Pseudomonas aeruginosa 1771M

The subject of assay [16] is Salmonella typhimurium. In words: Antibacterial activity, MIC by Agar dilution method, standard test strain 16. The conditions noted are these: Salmonella enterica, 10^7 CFU/ml, 37° C., 18 hours. The method, then: as §1, §2, §3
16. Salmonella typhimurium

In assay [17] the test system is Klebsiella oxytoca 1082E. Nature of the assay: Antibacterial activity, MIC by Agar dilution method, standard test strain 17. The conditions noted are these: 10^7 CFU/ml, 37° C., 18 hours. The method, then: as §1, §2, §3
In assay [18] the test system is Klebsiella aerogenes 1522E. Nature of the assay: Antibacterial activity, MIC by Agar dilution method, standard test strain 18. As to conditions: Klebsiella aerogenes 1522E; 10^7 CFU/ml, 37° C., 18 hours; read-out: MIC. The method, then: as §1, §2, §3
18. Klebsiella aerogenes 1522E

For assay [19], the system named is Enterobacter cloacae P99. In words: Antibacterial activity, MIC by Agar dilution method, standard test strain 19. The conditions noted are these: P99, 18 h. The method, then: as §1, §2, §3
19. Enterobacter cloacae P99

In assay [20] the test system is Enterobacter cloacae 1321E. Nature of the assay: Antibacterial activity, MIC by Agar dilution method, standard test strain 20. As to conditions: Enterobacter cloacae 1321E; 10^7 CFU/ml, 37° C., 18 hours; read-out: MIC. The method, then:
as §1, §2, §3
20. Enterobacter cloacae 1321E

The test system of assay [21] is Gram-positive strains as well as Gram-negative strains including Pseudomonas. Nature of the assay: Antibacterial activity (summary in words). The conditions noted are these: Gram-positive and Gram-negative strains. The method, then: as §1, §2

Converted amounts (≈) assume the structure as drawn. Like-named read-outs stand apart in the source and are kept apart here.

With `CO/N=C(\C(=O)N[C@@H]1C(=O)N2C(C(=O)[O-])=C(C[N+]3(N)CCCC3)CS[C@H]12)c1csc(N)n1` [Example 1, (6R,7R)-7-[(Z)-2-(2-aminothiazol-4-yl)-2-methoxyiminoacetamido]-3-(1-aminopyrrolidiniummethyl)ceph-3-em-4-carboxylate], the MIC in assay [1] is 0.025 µg/mL (≈ 0.0519 µM); in assay [2], 0.025 µg/mL (≈ 0.0519 µM); in [3] it was over 100 µg/mL; in [4], 6.26 µg/mL (≈ 13 µM); in assay [5] it was 12.5 µg/mL (≈ 26 µM); in assay [6] it was 1.56 µg/mL (≈ 3.25 µM). Further, the MIC in [7] (Escherichia coli, O55, 18 h) was 0.195 µg/mL (≈ 0.405 µM); in assay [8] it was 0.195 µg/mL (≈ 0.405 µM); in assay [9], 0.391 µg/mL (≈ 0.812 µM); in assay [10] it was 0.391 µg/mL (≈ 0.812 µM); in assay [11], 0.391 µg/mL (≈ 0.812 µM); in assay [12], 100 µg/mL (≈ 208 µM). Also, the minimum inhibitory concentration (MIC) came out at 100 µg/mL (≈ 208 µM) in assay [13]; 50 µg/mL (≈ 104 µM) in [14]; 3.12 µg/mL (≈ 6.49 µM) in assay [15]; 0.781 µg/mL (≈ 1.62 µM) in assay [16]; 12.5 µg/mL (≈ 26 µM) in [17]; 0.195 µg/mL (≈ 0.405 µM) in assay [18]. In addition, the MIC in assay [19] was over 100 µg/mL; in assay [20] it was 0.098 µg/mL (≈ 0.204 µM). Also, the “antibacterial activity (in words)” value in [21] is “excellent antibacterial activity”.
As to `CO/N=C(\C(=O)N[C@@H]1C(=O)N2C(C(=O)[O-])=C(C[N+]3(N)CCc4ccccc4C3)CS[C@H]12)c1csc(N)n1` (stereo partly drawn) [Example 5, (6R,7R)-7-[(Z)-2-(2-aminothiazol-4-yl)-2-methoxyiminoacetamido]-3-[(2-amino-1,2,3,4-tetrahydroisoquinolin-2-ium)methyl]-ceph-3-em-4-carboxylate], the MIC in [1] was determined as 0.049 µg/mL (≈ 0.0901 µM); in assay [2] it was 0.013 µg/mL (≈ 0.0239 µM); in [3] it was 50 µg/mL (≈ 92 µM); in assay [4] it was 1.56 µg/mL (≈ 2.88 µM); in assay [5] it was 6.25 µg/mL (≈ 11.5 µM); in assay [6], 0.781 µg/mL (≈ 1.44 µM). Moreover, the minimum inhibitory concentration (MIC) was 0.391 µg/mL (≈ 0.719 µM) in assay [7] (Escherichia coli, O55, 18 h); 0.391 µg/mL (≈ 0.719 µM) in assay [8]; 0.781 µg/mL (≈ 1.44 µM) in [9]; 0.781 µg/mL (≈ 1.44 µM) in assay [10]; 0.781 µg/mL (≈ 1.44 µM) in assay [11]; 50 µg/mL (≈ 92 µM) in assay [12]. The minimum inhibitory concentration (MIC) in [13] is 50 µg/mL (≈ 92 µM); in assay [14], 50 µg/mL (≈ 92 µM); in assay [15], 1.56 µg/mL (≈ 2.88 µM); in assay [16] it was 0.781 µg/mL (≈ 1.44 µM); in assay [17], 12.5 µg/mL (≈ 23 µM); in assay [18], 0.013 µg/mL (≈ 0.0239 µM). Moreover, the MIC in assay [19] was 100 µg/mL (≈ 184 µM); in assay [20] it was 0.013 µg/mL (≈ 0.0239 µM). In assay [21], the “antibacterial activity (in words)” value was “excellent antibacterial activity”.
Regarding `CO/N=C(\C(=O)N[C@@H]1C(=O)N2C(C(=O)[O-])=C(C[n+]3nn(N)c4ccccc43)CS[C@H]12)c1nsc(N)n1` [Example 85, (6R,7R)-7-[(Z)-2-(5-amino-1,2,4-thiadiazol-3-yl)-2-methoxyiminoacetamido]-3-[(1-aminobenzotriazol-3-ium)methyl]-ceph-3-em-4-carboxylate], the MIC in assay [1] is 0.007 µg/mL (≈ 0.0132 µM); in assay [2] it was 0.004 µg/mL (≈ 0.00754 µM); in assay [3] it was 100 µg/mL (≈ 188 µM); in assay [4], 0.391 µg/mL (≈ 0.737 µM); in assay [5] it was 1.56 µg/mL (≈ 2.95 µM); in assay [6] it was 0.391 µg/mL (≈ 0.737 µM). In addition, the MIC is 0.007 µg/mL (≈ 0.0132 µM) in assay [7] (O55, Escherichia coli O 55, 10^7 CFU/ml, 37° C., 18 hours, read-out: MIC); 0.025 µg/mL (≈ 0.0471 µM) in [8]; 0.025 µg/mL (≈ 0.0471 µM) in assay [9]; 0.025 µg/mL (≈ 0.0471 µM) in assay [10]; 0.049 µg/mL (≈ 0.0924 µM) in [11]; 3.12 µg/mL (≈ 5.89 µM) in [12]. Besides, the minimum inhibitory concentration (MIC) is 3.12 µg/mL (≈ 5.89 µM) in assay [13]; 1.56 µg/mL (≈ 2.95 µM) in assay [14]; 1.56 µg/mL (≈ 2.95 µM) in [15]; 0.195 µg/mL (≈ 0.368 µM) in [16]; 0.781 µg/mL (≈ 1.47 µM) in assay [17]; 0.049 µg/mL (≈ 0.0924 µM) in assay [18]. The MIC in assay [19] stood at 25 µg/mL (≈ 47.1 µM); in assay [20] it was 0.007 µg/mL (≈ 0.0132 µM).

What is called MIC is the lowest concentration found to suppress growth.
